Laboratory results published in patent US5468758A, “Crystalline forms of endo-2,3-dihydro-N-(8-methyl)-8-azabicyclo[3.2.1]oct-3-yl)-2-oxo-1H-benz imidazole-1-carboxamides” (Boehringer Ingelheim Italia S.p.A., priority 1992, dated 1995).
Structures can show the parent of a compound that is named as a salt.

What was measured:
Assay type in all cases: physicochemical
[1] = Moisture sorption/desorption studies (hygrostat, storage at different temperatures and relative humidity); set-up: water content (Table VI): unit not given here; settings: for water content (Table VII): 11.2% RH, % on the weight of compound 1b
Protocol: The determination of the sorption isotherms was carried out in a hygrostat.
At suitable intervals, the sample was weighed by means of a sample balance. The atmosphere in the hygrostat and therefore around the sample of compound 1a (1b) and 2a (2b) was conditioned and kept by a saturated solutions of a suitable salt:
Na Cl saturated solution 75.3% RH/25° C. 74.8% RH/37° C.
KNO3 saturated solution 93.7% RH/25° C. 90.0% RH/37° C.
At the end of the experiment, after completing the hysteresis, that is the adsorption--desorption cycle of humidity, the compound was assayed for the title and degradation products by TLC and HPLC, the physical state by DSC and water content by TGA.

[2] = Water loss on desiccation under vacuum; settings: between room temperature and 60° C. under vacuum, most preferably 40° C., 0.1 mm Hg, 24 hours; in words
Protocol: Compounds 2a and 2b may be prepared by dissolving the compounds 1a and 1b, as free base, in a hot aqueous solvent, preferably a hot aqueous alkanol, by adding the required amount of gaseous hydrogen chloride, filtering the resulting solution and letting it cool to room temperature. In a preferred embodiment of the process according to the invention, compound 2a is prepared by using, as an hot aqueous alkanol, hot 85% aqueous ethanol. The crystals of compound 2a may be collected by vacuum filtration and are washed with a small amount of aqueous ethanol. In a preferred embodiment of the process according to the invention, compound 2b is prepared by using, as an hot aqueous alkanol, hot 95% aqueous isopropanol. The crystals of compound 2b may be collected by vacuum filtration and are washed with a small amount of aqueous isopropanol. […] Water content may be measured by usual techniques such as the Karl Fischer test. Alternatively, compounds 2a and 2b may be conveniently prepared by dissolving the anhydrous form of compounds 1a and 1b, as hydrochloride, in hot aqueous ethanol, preferably 85% ethanol (respectively in hot aqueous isopropanol, preferably 95% isopropanol) and allowing to cool the solution at room temperature; crystals of compound 2 a (respectively 2b), separated from the cooled solution, are collected by vacuum filtration and manipulated as previously described. […]

[3] = Long-term real time stability tests in tablets and capsules
From the text: (§1) Drug stability in these final compositions may be measured in accelerated stability tests or in long term real time stability tests. In accelerated stability tests, the above pharmaceutical compositions are exposed at high temperatures at different degrees of relative humidity for a period of time. Such tests are considered to be indicative of the stability of the composition at normal conditions. In long term real time stability studies the final compositions are exposed to normal conditions of storage at ambient temperatures at different degrees of relative humidity.
Tablets and capsules are packaged in PVC/PVDC blister with aluminium foil

[4] = Accelerated stability tests in tablets and capsules
From the text: as §1
(*)according to H. Leven Berger Pharm. Act. Helv. 50 (1975) 88-91 it is
equivalent to 2 years storage at room temperature. Tablets and capsules
are packaged in PVC/PVDC blister with aluminium foil.
(*)according to "Guidelines for stability studies for Human Drugs and
Biologics" (1987) (USA/FDA) it is equivalent to 2 years at room
temperature. Tablets and capsules are packaged in PVC/PVDC blister with […]

[5] = Milling studies (FRITSCH Pulverisette 14 Rotor Speed Mill)
Protocol: The milling process was performed by the FRITSCH Pulverisette 14 Rotor Speed Mill supplied with circular sieve stainless steel with trapezoidal 0.080 mm diameter openings. The samples were passed through the mill twice at 20.000 rpm motor speed. The sample is assayed for title and degradation products by TLC and HPLC, physical state by DSC, water content by TGA, particle size distribution by Mercury Instrusion Porosimetry. The mi 11ed compounds are formulated in capsules and tablets at very low dose level (0.5 mg) by direct mixing and direct compression manufacturing method, respectively.

## CCn1c(=O)n(C(=O)N[C@H]2C[C@H]3CC[C@@H](C2)N3C)c2ccccc21 [Compound 2b, Endo-3-ethyl-2,3-dihydro-N-(8-methyl-8-azabicyclo-[3.2.1]oct-3-yl)-2-oxo-1H-benzimidazole-1-carboxamide, hydrochloride monohydrate]
[1]
  stability in condition of storage: stable
[1]; 11 RH, 37° C., in words
  water content in conditions of extreme dryness: not affected
[1]; 37° C., 1 h
  water content (Table VII): 5.00%
[1]; 37° C., 2 h
  water content (Table VII): 4.85%
[1]; 37° C., 4 h
  water content (Table VII): 4.80%
[1]; 37° C., 6 h
  water content (Table VII): 4.70%
[1]; 37° C., 6 days
  water content (Table VII): 4.70%
[1]; 37° C., time 0
  water content (Table VII): 5.02%
[1]; 37° C., 49.2% RH, 2 h, hydrochloride monohydrate
  water content (Table VI): 5.03
[1]; 37° C., 49.2% RH, 4 h, hydrochloride monohydrate
  water content (Table VI): 5.04
[1]; 37° C., 49.2% RH, 6 h, hydrochloride monohydrate
  water content (Table VI): 5.00
[1]; 37° C., 49.2% RH, 1 d, hydrochloride monohydrate
  water content (Table VI): 5.00
[1]; 37° C., 49.2% RH, 4 d, hydrochloride monohydrate
  water content (Table VI): 5.04
[1]; 37° C., 49.2% RH, 10 d, hydrochloride monohydrate
  water content (Table VI): 4.95
[1]; 37° C., 49.2% RH, 30 d, hydrochloride monohydrate
  water content (Table VI): 5.02
[1]; 37° C., 49.2% RH, time 0, hydrochloride monohydrate
  water content (Table VI): 5.00
[1]; 37° C., 74.8% RH, 2 h, hydrochloride monohydrate
  water content (Table VI): 5.05
[1]; 37° C., 74.8% RH, 4 h, hydrochloride monohydrate
  water content (Table VI): 5.05
[1]; 37° C., 74.8% RH, 6 h, hydrochloride monohydrate
  water content (Table VI): 5.07
[1]; 37° C., 74.8% RH, 1 d, hydrochloride monohydrate
  water content (Table VI): 5.07
[1]; 37° C., 74.8% RH, 4 d, hydrochloride monohydrate
  water content (Table VI): 5.07
[1]; 37° C., 74.8% RH, 10 d, hydrochloride monohydrate
  water content (Table VI): 4.97
[1]; 37° C., 74.8% RH, 30 d, hydrochloride monohydrate
  water content (Table VI): 5.00
[1]; 37° C., 74.8% RH, time 0, hydrochloride monohydrate
  water content (Table VI): 5.00
[1]; different temperatures and relative humidity, in words, hydrochloride monohydrate
  moisture absorption: do not absorb moisture
[2]
  loss of water content on desiccation: without any appreciable loss of water content
[3]
  stability in tablets and capsules: better stability
[4]
  stability in tablets and capsules: better stability
[5]; Mercury Porosimetry Analysis, in words
  particle size reduction (milling efficiency): same rank order
[5]; after milling, hydrochloride monohydrate
  humidity content: 4.8%
